We go through 14 compounds from patent publication US7488751B2, “Antidepressant cycloalkylamine derivatives of 2,3-dihydro-1,4-benzodioxan” (Wyeth, priority 2002, dated 2009).

A word on the Ki: it is the dissociation constant of the complex between target and ligand, obtained from inhibition or displacement. What is called IC50 is the point on the concentration scale where inhibition reaches its midpoint. One may read the EC50 as the midpoint of the concentration-response curve. The low end stands for higher potency in that assay, the high end for lower potency in that assay. As usually defined, the Emax is the greatest response seen or fitted, relative to the assay's reference.

For assay [1], the target named is T1, serotonin transporter (Rattus norvegicus, UniProt P31652).
T1 construct: displace ^3H-paroxetine from male rat frontal cortical membranes; from tissue; host or cells: male rat frontal cortex membranes
T1 sequence (P31652 whole entry): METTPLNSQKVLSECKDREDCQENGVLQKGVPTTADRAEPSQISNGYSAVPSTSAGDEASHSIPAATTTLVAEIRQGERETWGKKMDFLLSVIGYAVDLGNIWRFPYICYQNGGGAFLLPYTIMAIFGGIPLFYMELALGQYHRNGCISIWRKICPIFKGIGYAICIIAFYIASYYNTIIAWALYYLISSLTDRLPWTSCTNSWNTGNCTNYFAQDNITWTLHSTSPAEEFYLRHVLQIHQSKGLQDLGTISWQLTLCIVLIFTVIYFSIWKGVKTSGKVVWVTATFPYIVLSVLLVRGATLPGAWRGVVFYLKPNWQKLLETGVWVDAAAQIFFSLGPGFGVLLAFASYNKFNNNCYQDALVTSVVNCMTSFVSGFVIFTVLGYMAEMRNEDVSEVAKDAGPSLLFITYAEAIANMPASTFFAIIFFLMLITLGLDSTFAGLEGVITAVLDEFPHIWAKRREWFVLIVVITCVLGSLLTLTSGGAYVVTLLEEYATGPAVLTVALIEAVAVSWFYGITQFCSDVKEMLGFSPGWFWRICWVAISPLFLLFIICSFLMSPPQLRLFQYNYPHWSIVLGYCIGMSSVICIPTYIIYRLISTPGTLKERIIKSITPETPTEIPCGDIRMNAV
Kind of assay: 3H-paroxetine displacement, affinity for the serotonin transporter. Conditions: displacement of 3H-paroxetine from male rat frontal cortical membranes; read-out: 5-HT Transporter Affinity Ki. The format is binding. A general note: In a radioligand displacement assay an active substance lowers the binding of a labelled ligand.

In assay [2] the target is T2, human 5-HT1A receptors (Homo sapiens, UniProt P08908).
T2 construct: expressed in transfected cells; host or cells: CHO cells (stably transfected)
T2 sequence (P08908 1-422): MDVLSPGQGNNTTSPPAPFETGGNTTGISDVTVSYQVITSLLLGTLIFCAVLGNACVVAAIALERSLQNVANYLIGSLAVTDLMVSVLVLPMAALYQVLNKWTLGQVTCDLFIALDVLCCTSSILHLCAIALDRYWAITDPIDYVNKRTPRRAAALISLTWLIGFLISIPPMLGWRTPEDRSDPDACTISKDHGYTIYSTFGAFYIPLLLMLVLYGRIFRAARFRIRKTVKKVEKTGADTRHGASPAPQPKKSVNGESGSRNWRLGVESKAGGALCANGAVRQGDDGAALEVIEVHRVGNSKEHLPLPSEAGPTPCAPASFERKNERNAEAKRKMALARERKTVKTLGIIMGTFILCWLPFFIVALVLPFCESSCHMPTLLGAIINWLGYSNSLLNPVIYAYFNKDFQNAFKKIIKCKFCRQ
The assay can be described thus: [3H] 8-OHDPAT displacement from the 5-HT1A serotonin receptor (transfected CHO cells). The format is binding. As to conditions: displacement of [3H] 8-OHDPAT; CHO cells stably transfected with human 5-HT1A receptors; read-out: 5-HT1A Receptor Affinity Ki. From the text:
High affinity for the serotonin 5-HT1A receptor was established by testing the claimed compound's ability to displace [^3H] 8-OHDPAT (dipropylaminotetralin) from the 5-HT1A serotonin receptor following a modification of the procedure of Hall et al., J. Neurochem. 44, 1685 (1985) which utilizes CHO cells stably transfected with human 5-HT1A receptors.

Assay [3] has as its target T3, cloned human 5-HT1A receptors (Homo sapiens, UniProt P08908).
T3 construct: expressed in transfected cells
T3 sequence (P08908 1-422): T2 sequence (P08908 1-422)
Kind of assay: 35S-GTPγS binding assay, 5-HT1A function. The format is biochemical. Conditions: for IC50: antagonist potency, reversal of effects of standard agonist 8-OHDPAT on 35S-GTPγS binding; for 5-HT1A Function (Imax): maximum inhibitory effect, 35S-GTPγS binding, reversal of 8-OHDPAT, unit assumed. As for the experimental part: Antagonist activity at 5-HT1A receptors was established by using a ^35S-GTPγS binding assay similar to that used by Lazareno and Birdsall (Br. J. Pharmacol. 109: 1120, 1993), in which the test compound's ability to affect the binding of ^35S-GTPγS to membranes containing cloned human 5-HT1A receptors was determined. Agonists produce an increase in binding whereas antagonists produce no increase but rather reverse the effects of the standard agonist 8-OHDPAT. The test compound's maximum inhibitory effect is represented as the Imax, while its potency is defined by the IC50.

Assay [4] concerns the target T3, cloned human 5-HT1A receptors. Kind of assay: 35S-GTPγS binding assay, 5-HT1A function. In kind it is biochemical.

For `COc1cccc2c1O[C@@H](CN[C@H]1CC[C@H](c3c[nH]c4ccc(F)cc34)C1)CO2` (mixture of isomers) [Example 2, N-[(trans)-3-(5-fluoro-1H-indol-3-yl)cyclopentyl]-N-{[(2S)-8-methoxy-2,3 dihydro-1,4-benzodioxin-2-yl]methyl}amine], the Ki in assay [1] worked out at 0.6 nM. For the same compound, the Ki in assay [2] is 14.5 nM. Further, in assay [3], the concentration for half-maximal inhibition (IC50) came out at 7 nM and the 5-HT1A Function (Imax) is 99%.

For the compound `COc1cccc2c1O[C@@H](CN[C@H]1CC[C@@H](c3cn(C)c4ccc(F)cc34)C1)CO2` (mixture of isomers) [Example 3, N-[(cis)-3-(5-fluoro-1-methyl-1H-indol-3-yl)cyclopentyl]-N-{[(2S)-8-methoxy-2,3-dihydro-1,4-benzodioxin-2-yl]methyl}amine], the Ki in assay [1] was 12 nM. In addition, in assay [2], the inhibition constant Ki stood at 10.8 nM. In assay [3], the IC50 stood at 152 nM and the 5-HT1A Function (Imax) amounted to 64%.

Consider `COc1cccc2c1O[C@@H](CN[C@H]1CC[C@H](c3cn(C)c4ccc(F)cc34)C1)CO2` (mixture of isomers) [Example 4, N-[(trans)-3-(5-fluoro-1-methyl-1H-indol-3-yl)cyclopentyl]-N-{[(2S)-8-methoxy-2,3-dihydro-1,4-benzodioxin-2-yl]methyl}amine], for which, in assay [1], the inhibitory constant (Ki) was 3.86 nM. Moreover, the Ki in assay [2] came out at 3.02 nM. In assay [3], the IC50 is 53 nM and the 5-HT1A Function (Imax) is 79%.

`CCOc1cccc2c1O[C@@H](CN[C@H]1CC[C@@H](c3c[nH]c4ccc(F)cc34)C1)CO2` (mixture of isomers) [Example 5, N-{[(2S)-8-ethoxy-2,3-dihydro-1,4-benzodioxin-2-yl]methyl}-N-[(cis)-3-(5-fluoro-1H-indol-3-yl)cyclopentyl]amine]: in assay [1], the Ki amounted to 0.6 nM. For the same compound, the Ki in assay [2] stood at 8.09 nM. Besides, in assay [3], the concentration for half-maximal inhibition (IC50) was found to be 105 nM and the 5-HT1A Function (Imax) came out at 48%.

As to `CCOc1cccc2c1O[C@@H](CN[C@H]1CC[C@H](c3c[nH]c4ccc(F)cc34)C1)CO2` (mixture of isomers) [Example 6, N-{[(2S)-8-ethoxy-2,3-dihydro-1,4-benzodioxin-2-yl]methyl}-N-[(trans)-3-(5-fluoro-1H-indol-3-yl)cyclopentyl]amine], the Ki in assay [1] came to 0.43 nM. In addition, in assay [2], the Ki is 25.2 nM. For the same compound, in assay [3], the concentration for half-maximal inhibition (IC50) turned out to be 359 nM and the 5-HT1A Function (Imax) came out at 25%.

For the compound `COc1cccc2c1O[C@@H](CN[C@@H]1CC[C@H](c3c[nH]c4ccc(F)cc34)C1)CO2` (single isomer, unassigned) [Example 1-Isomer A, N-[(1R*,3S*)-3-(5-fluoro-1H-indol-3-yl)cyclopentyl]-N-{[(2S)-8-methoxy-2,3-dihydro-1,4-benzodioxin-2-yl]methyl}amine], the inhibition constant Ki in assay [1] was found to be 1.28 nM. Also, the inhibition constant Ki in assay [2] worked out at 7.52 nM. Further, in assay [3], the concentration for half-maximal inhibition (IC50) came to 30 nM and the 5-HT1A Function (Imax) is 78%.

Take `COc1cccc2c1O[C@@H](CN[C@H]1CC[C@@H](c3c[nH]c4ccc(F)cc34)C1)CO2` (single isomer, unassigned) [Example 1-Isomer B, N-[(1S*,3R*)-3-(5-fluoro-1H-indol-3-yl)cyclopentyl]-N-{[(2S)-8-methoxy-2,3-dihydro-1,4-benzodioxin-2-yl]methyl}amine]: in assay [1], the inhibition constant Ki came out at 1.92 nM. In assay [2], the Ki amounted to 3.61 nM. For the same compound, in assay [3], the half-inhibitory concentration (IC50) amounted to 22 nM and the 5-HT1A Function (Imax) amounted to 100%.

For `COc1cccc2c1O[C@@H](CN[C@H]1CC[C@H](c3c[nH]c4ccc(F)cc34)C1)CO2` (single isomer, unassigned) [Example 2-Isomer A, N-[(1S*,3S*)-3-(5-fluoro-1H-indol-3-yl)cyclopentyl]-N-{[(2S)-8-methoxy-2,3-dihydro-1,4-benzodioxin-2-yl]methyl}amine], the Ki in assay [1] came out at 1 nM. In addition, the Ki in assay [2] was 23.6 nM. Moreover, in assay [3], the half-maximal inhibitory concentration (IC50) came to 375 nM and the 5-HT1A Function (Imax) is 84%.

For the compound `COc1cccc2c1O[C@@H](CN[C@@H]1CC[C@@H](c3c[nH]c4ccc(F)cc34)C1)CO2` (single isomer, unassigned) [Example 2-Isomer B, N-[(1R*,3R*)-3-(5-fluoro-1H-indol-3-yl)cyclopentyl]-N-{[(2S)-8-methoxy-2,3-dihydro-1,4-benzodioxin-2-yl]methyl}amine], the Ki in assay [1] turned out to be 0.8 nM. Also, the Ki in assay [2] came to 2.05 nM. In addition, in assay [3], the concentration for half-maximal inhibition (IC50) came to 76 nM and the 5-HT1A Function (Imax) is 32%.

For the compound `COc1cccc2c1O[C@@H](CN[C@@H]1CC[C@H](c3c[nH]c4ccc(C#N)cc34)C1)CO2` (single isomer, unassigned) [Example 7-Isomer A], the inhibition constant Ki was 0.64 nM in assay [1] and 5.29 nM in assay [2].

For the compound `COc1cccc2c1O[C@@H](CN[C@H]1CC[C@H](c3c[nH]c4ccc(C#N)cc34)C1)CO2` (single isomer, unassigned) [Example 7-Isomer B], the values for the inhibition constant (Ki) in assay [1] and in assay [2] were 0.57 nM and 9.62 nM, respectively. Moreover, the IC50 in assay [3] was determined as 24 nM. The 5-HT1A Function (Imax) in assay [3] was found to be 56%.

For the compound `COc1cccc2c1O[C@@H](CN[C@@H]1CC[C@H](c3cn(C)c4ccc(C#N)cc34)C1)CO2` (single isomer, unassigned) [Example 8-Isomer A], the inhibition constant Ki in assay [1] was found to be 6 nM; in assay [2] it was 12.6 nM. Also, the EC50 in assay [4] (given as EC50) is 23 nM. Moreover, the Emax in assay [4] (given as Emax) was 64%.

In the case of `COc1cccc2c1O[C@@H](CN[C@H]1CC[C@H](c3cn(C)c4ccc(C#N)cc34)C1)CO2` (single isomer, unassigned) [Example 8-Isomer B], the Ki in assay [1] came out at 8 nM; in assay [2], 25.5 nM.

In the case of `COc1cccc2c1OC(CNC1CCC(c3c[nH]c4ccc(F)cc34)C1)CO2` [Example 1, N-[(cis)-3-(5-fluoro-1H-indol-3-yl)cyclopentyl]-N-{([(2S)-8-methoxy-2,3-dihydro-1,4-benzodioxin-2-yl]methyl}amine], the inhibition constant (Ki) in assay [1] turned out to be 1.07 nM; in assay [2], 5.82 nM. The IC50 in assay [3] came to 55 nM. Besides, the 5-HT1A Function (Imax) in assay [3] was 100%.
